For 34 compounds, melting point results are on record in patent US6573274B1, “Sulfonamide compounds and uses thereof as medicines” (Fujisawa Pharmaceutical Co. Ltd., priority 1998, dated 2003).

Structures can show the parent of a compound that is named as a salt. Some results are limits rather than exact numbers.

The melting point is the temperature, or range, at which the solid turns liquid. `CCCCCS(=O)(=O)NC(=O)c1ccc2nc(C)n(Cc3cnc(Cl)cc3Cl)c2n1` registered a melting point of 161 to 163 °C.

With `CCCCCS(=O)(=O)NC(=O)c1cc(C)c2nc(C)n(Cc3ccc(C#Cc4ccccc4)cc3Cl)c2n1.[Na]`, the melting point was in the range of 175 to 178 °C.

As for `CCCCCS(=O)(=O)NC(=O)c1ccc2nc(C)n(Cc3ccc(-c4ccc(Cl)s4)cc3Cl)c2n1.[Na]`, the melting point is more than 250 °C.

On to `Cc1cc(C(=O)NS(=O)(=O)c2ccc(Br)s2)nc2c1nc(C)n2Cc1ccc(-c2ccccc2)cc1Cl.[Na]`, for which the melting point was more than 250 °C.

In the case of `CCCCCS(=O)(=O)NC(=O)c1ccc2nc(C)n(Cc3ccc(N(C)C(=O)OC(C)(C)C)cc3Cl)c2n1.[Na]`, the melting point lay in the range of 231 to 233 °C.

Compound `CCC/C=C/S(=O)(=O)NC(=O)c1ccc2nc(C)n(Cc3ncc(NC(=O)OC(C)(C)C)cc3Cl)c2n1` (as salt: sodium) [Example 130, 3-[(5-(N-(tert-butoxycarbonyl)amino)-3-chloropyridin-2-yl)methyl]-2-methyl-5-((E)-1-penten-1-ylsulfonylcarbamoyl)-3H-imidazo[4,5-b]pyridine] registered a melting point of 202 to 204 °C.

Consider `CCC/C=C/S(=O)(=O)NC(=O)c1ccc2nc(C)n(Cc3ncc(NC(=O)OCC)cc3Cl)c2n1` (as salt: sodium) [Example 133, 3-[(3-chloro-5-(N-(ethoxycarbonyl)amino)pyridin-2-yl)methyl]-2-methyl-5-((E)-1-penten-1-ylsulfonylcarbamoyl)-3H-imidazo[4,5-b]pyridine], for which the melting point lay in the range of 236 to 239 °C.

Compound `CCCCCS(=O)(=O)NC(=O)c1ccc2nc(C)n(Cc3ccc(OC)cc3Cl)c2n1` [Example 5, 3-(2-chloro-4-methoxybenzyl)-2-methyl-5-(1-pentanesulfonylcarbamoyl)-3H-imidazo[4,5-b]pyridine] came in with a melting point of 188 to 189 °C.

For the compound `CCCCS(=O)(=O)NC(=O)c1ccc2nc(C)n(Cc3ccc(OC)cc3Cl)c2n1` [Example 6, 5-(1-butanesulfonylcarbamoyl)-3-(2-chloro-4-methoxybenzyl)-2-methyl-3H-imidazo[4,5-b]pyridine], the melting point fell in the range of 175 to 177 °C.

`CCCCCS(=O)(=O)NC(=O)c1ccc2nc(C)n(Cc3ccc(OCC)cc3Cl)c2n1` [Example 8, 3-(2-chloro-4-ethoxybenzyl)-2-methyl-5-(1-pentanesulfonylcarbamoyl)-3H-imidazo[4,5-b]pyridine]: the melting point was 165 to 166 °C.

With `CCCCS(=O)(=O)NC(=O)c1ccc2nc(C)n(Cc3ccc(OCC)cc3Cl)c2n1` [Example 9, 5-(1-butanesulfonylcarbamoyl)-3-(2-chloro-4-ethoxybenzyl)-2-methyl-3H-imidazo[4,5-b]pyridine], the melting point was 151 to 152 °C.

In turn, `CCCNS(=O)(=O)NC(=O)c1ccc2nc(C)n(Cc3ccc(OCC)cc3Cl)c2n1` [Example 10, 3-(2-chloro-4-ethoxybenzyl)-2-methyl-5-((1-propylaminosulfonyl)carbamoyl)-3H-imidazo[4,5-b]pyridine] returned a melting point of 152 to 155 °C.

Turning to `CCCCNS(=O)(=O)NC(=O)c1ccc2nc(C)n(Cc3ccc(OCC)cc3Cl)c2n1` [Example 11, 5-((1-butylaminosulfonyl)carbamoyl)-3-(2-chloro-4-ethoxybenzyl)-2-methyl-3H-imidazo[4,5-b]pyridine], the melting point lay in the range of 175 to 177 °C.

For `CCCCCS(=O)(=O)NC(=O)c1ccc2nc(C)n(Cc3ccc(OCCC)cc3Cl)c2n1` [Example 12, 3-(2-chloro-4-(1-propoxy)benzyl)-2-methyl-5-(1-pentanesulfonylcarbamoyl)-3H-imidazo[4,5-b]pyridine], the melting point lay within 131 to 134 °C.

`CCCCS(=O)(=O)NC(=O)c1ccc2nc(C)n(Cc3ccc(OCCC)cc3Cl)c2n1` [Example 13, 5-(1-butanesulfonylcarbamoyl)-3-(2-chloro-4-(1-propoxy)benzyl)-2-methyl-3H-imidazo[4,5-b]pyridine] registered a melting point of 153 to 154 °C.

With `CCCCCS(=O)(=O)NC(=O)c1ccc2nc(C)n(Cc3ccc(OC(C)C)cc3Cl)c2n1` [Example 14, 3-(2-chloro-4-isopropoxybenzyl)-2-methyl-5-(1-pentanesulfonylcarbamoyl)-3H-imidazo[4,5-b]pyridine], the melting point lay in the range of 130 to 133 °C.

In turn, `CCCCS(=O)(=O)NC(=O)c1ccc2nc(C)n(Cc3ccc(OC(C)C)cc3Cl)c2n1` [Example 15, 5-(1-butanesulfonylcarbamoyl)-3-(2-chloro-4-isopropoxybenzyl)-2-methyl-3H-imidazo-[4,5-b]pyridine] gave a melting point of 138 to 141 °C.

`CCCCCS(=O)(=O)NC(=O)c1ccc2nc(C)n(Cc3ccc(OCCCC)cc3Cl)c2n1` [Example 17, 3-(2-chloro-4-(1-butoxy)benzyl)-2-methyl-5-(1-pentanesulfonylcarbamoyl)-3H-imidazo[4,5-b]pyridine] returned a melting point of 133 to 136 °C.

Compound `CCCCOc1ccc(Cn2c(C)nc3ccc(C(=O)NS(=O)(=O)CCCC)nc32)c(Cl)c1` [Example 18, 5-(1-butanesulfonylcarbamoyl)-3-(2-chloro-4-(1-butoxy)benzyl)-2-methyl-3H-imidazo[4,5-b]pyridine] came in with a melting point of 144 to 145 °C.

For the compound `CCCCCOc1ccc(Cn2c(C)nc3ccc(C(=O)NS(=O)(=O)CCCCC)nc32)c(Cl)c1` [Example 20, 3-(2-chloro-4-(1-pentyloxy)benzyl)-2-methyl-5-(1-pentanesulfonylcarbamoyl)-3H-imidazo[4,5-b]pyridine], the melting point is 128 to 131 °C.

For `CCCCCOc1ccc(Cn2c(C)nc3ccc(C(=O)NS(=O)(=O)CCCC)nc32)c(Cl)c1` [Example 21, 5-(1-butanesulfonylcarbamoyl)-3-(2-chloro-4-(1-pentyloxy)benzyl)-2-methyl-3H-imidazo[4,5-b]pyridine], the melting point was 145 to 146 °C.

Regarding `CCCCCOc1ccc(Cn2c(C)nc3ccc(C(=O)NS(=O)(=O)c4ccc(Br)s4)nc32)c(Cl)c1` [Example 23, 5-[(5-bromothiophen-2-yl)sulfonylcarbamoyl]-3-[2-chloro-4-(1-pentyloxy)benzyl]-2-methyl-3H-imidazo[4,5-b]pyridine], the melting point is 156 to 157 °C.

`CCCCCOc1ccc(Cn2c(C)nc3ccc(C(=O)NS(=O)(=O)c4ccc(Cl)s4)nc32)c(Cl)c1` [Example 24, 3-[2-chloro-4-(1-pentyloxy)benzyl]-2-methyl-5-[(5-chlorothiophen-2-yl)sulfonylcarbamoyl]-3H-imidazo[4,5-b]pyridine] displayed a melting point of 154 to 155 °C.

`CCCCCOc1ccc(Cn2c(C)nc3ccc(C(=O)NS(=O)(=O)NCCC)nc32)c(Cl)c1` [Example 25, 5-((1-propylaminosulfonyl)carbamoyl)-3-(2-chloro-4-(1-pentyloxy)benzyl)-2-methyl-3H-imidazo[4,5-b]pyridine] yielded a melting point of 155 to 158 °C.

With `CCCCCOc1ccc(Cn2c(C)nc3ccc(C(=O)NS(=O)(=O)NCCCC)nc32)c(Cl)c1` [Example 26, 5-((1-butylaminosulfonyl)carbamoyl)-3-(2-chloro-4-(1-pentyloxy)benzyl)-2-methyl-3H-imidazo[4,5-b]pyridine], the melting point lay in the range of 136 to 138 °C.

`CCCCCS(=O)(=O)NC(=O)c1ccc2nc(C)n(Cc3ccc(OCC4CCCC4)cc3Cl)c2n1` [Example 27, 3-(2-chloro-4-((cyclopentylmethyl)oxy)benzyl)-2-methyl-5-(1-pentanesulfonylcarbamoyl)-3H-imidazo[4,5-b]pyridine]: the melting point was in the range of 160 to 161 °C.

In turn, `CCCCS(=O)(=O)NC(=O)c1ccc2nc(C)n(Cc3ccc(OCC4CCCC4)cc3Cl)c2n1` [Example 28, 5-(1-butanesulfonylcarbamoyl)-3-(2-chloro-4-((cyclopentylmethyl)oxy)benzyl)-2-methyl-3H-imidazo[4,5-b]pyridine] gave a melting point of 180 to 181 °C.

For the compound `CCCCCS(=O)(=O)NC(=O)c1cc(C)c2nc(C)n(Cc3ccc(OCCC)cc3Cl)c2n1` [Example 35, 3-(2-chloro-4-(1-propoxy)benzyl)-2,7-dimethyl-5-(1-pentanesulfonylcarbamoyl)-3H-imidazo[4,5-b]pyridine], the melting point was in the range of 161 to 162 °C.

Compound `CCCCS(=O)(=O)NC(=O)c1cc(C)c2nc(C)n(Cc3ccc(OCCC)cc3Cl)c2n1` [Example 36, 5-(1-butanesulfonylcarbamoyl)-3-[2-chloro-4-(1-propoxy)benzyl]-2,7-dimethyl-3H-imidazo[4,5-b]pyridine] came in with a melting point of 164 to 166 °C.

In turn, `CCCCCOc1ccc(Cn2c(C)nc3c(C)cc(C(=O)NS(=O)(=O)CCCCC)nc32)c(Cl)c1` [Example 38, 3-[2-chloro-4-(1-pentyloxy)benzyl]-2,7-dimethyl-5-(1-pentanesulfonylcarbamoyl)-3H-imidazo[4,5-b]pyridine] came in with a melting point of 149 to 150 °C.

`CCCCCS(=O)(=O)NC(=O)c1ccc2nc(C)n(Cc3ccc(N(C)C(=O)OC(C)(C)C)cc3Cl)c2n1` [Example 41, 3-(4-(N-(tert-butoxycarbonyl)-N-methylamino)-2-chlorobenzyl)-2-methyl-5-(1-pentanesulfonylcarbamoyl)-3H-imidazo[4,5-b]pyridine] had a melting point of 160 to 161 °C.

On to `CCCCCS(=O)(=O)NC(=O)c1ccc2nc(C)n(Cc3ccc(NC)cc3Cl)c2n1` [Example 42, 3-(2-chloro-4-(methylamino)benzyl)-2-methyl-5-(1-pentanesulfonylcarbamoyl)-3H-imidazo[4,5-b]pyridine], for which the melting point was in the range of 185 to 186 °C.

As for `CCCCCS(=O)(=O)NC(=O)c1ccc2nc(C)n(Cc3ccc(N(C)CC)cc3Cl)c2n1` [Example 43, 3-(2-chloro-4-(ethylmethylamino)benzyl)-2-methyl-5-(1-pentanesulfonylcarbamoyl)-3H-imidazo[4,5-b]pyridine], the melting point lay in the range of 148 to 149 °C.

As for `CCCCCS(=O)(=O)NC(=O)c1ccc2nc(C)n(Cc3ccc(N(C)CCC)cc3Cl)c2n1` [Example 44, 3-(2-chloro-4-(methyl-(1-propyl)amino)benzyl)-2-methyl-5-(1-pentanesulfonylcarbamoyl)-3H-imidazo[4,5-b]pyridine], the melting point lay within 129 to 130 °C.
